Experimental data as given in the CheMixHub viscosity set.

Experiment: xn = mol fraction of the nth substance listed

CCCCC(=O)O + CCCCCCCCO
viscosity [mPa·s], 100 kPa
Details | x1 = 0.0831 | x1 = 0.1619 | x1 = 0.2381 | x1 = 0.3512 | x1 = 0.4418 | x1 = 0.5665 | x1 = 0.6539 | x1 = 0.7441 | x1 = 0.8551 | x1 = 0.9417
293.15 K | 8.14 | 7.31 | 6.64 | 5.83 | 5.25 | 4.52 | 4.04 | 3.56 | 2.99 | 2.55
303.15 K | 5.85 | 5.4 | 5.01 | 4.47 | 4.06 | 3.51 | 3.14 | 2.78 | 2.36 | 2.06
313.15 K | 4.28 | 3.97 | 3.7 | 3.33 | 3.06 | 2.7 | 2.46 | 2.21 | 1.93 | 1.71
323.15 K | 3.21 | 3.01 | 2.83 | 2.59 | 2.4 | 2.15 | 1.99 | 1.82 | 1.61 | 1.45

NCCNCCN + CCCCCCCCO
viscosity [mPa·s], 101 kPa
Details | 298.15 K | 303.15 K | 308.15 K
x1 = 0.0574 | 8.191 | 6.649 | 5.637
x1 = 0.1135 | 8.77 | 7.063 | 5.975
x1 = 0.1584 | 9.103 | 7.248 | 6.111
x1 = 0.2 | 9.198 | 7.3 | 6.14
x1 = 0.2521 | 9.202 | 7.268 | 6.096
x1 = 0.311 | 9.044 | 7.129 | 5.957
x1 = 0.4024 | 8.532 | 6.792 | 5.691
x1 = 0.5076 | 7.72 | 6.264 | 5.244
x1 = 0.6106 | 6.988 | 5.798 | 4.877
x1 = 0.7085 | 6.366 | 5.286 | 4.493
x1 = 0.8064 | 6.017 | 4.915 | 4.228
x1 = 0.8556 | 5.901 | 4.791 | 4.101
x1 = 0.9033 | 5.791 | 4.679 | 3.999
x1 = 0.9524 | 5.699 | 4.584 | 3.889

CCCCC(=O)O + CCCCCCCO
viscosity [mPa·s], 100 kPa
Details | x1 = 0.0814 | x1 = 0.1667 | x1 = 0.2436 | x1 = 0.3521 | x1 = 0.4395 | x1 = 0.5617 | x1 = 0.6566 | x1 = 0.7424 | x1 = 0.8518 | x1 = 0.9437
293.15 K | 6.67 | 6.29 | 5.94 | 5.44 | 5.02 | 4.43 | 3.96 | 3.54 | 2.99 | 2.53
303.15 K | 4.79 | 4.54 | 4.31 | 3.98 | 3.7 | 3.31 | 3 | 2.72 | 2.36 | 2.06
313.15 K | 3.52 | 3.32 | 3.14 | 2.9 | 2.72 | 2.46 | 2.27 | 2.09 | 1.87 | 1.68
323.15 K | 2.66 | 2.53 | 2.42 | 2.26 | 2.13 | 1.96 | 1.83 | 1.71 | 1.56 | 1.43

CCCCC(=O)O + CCCCCCO
viscosity [mPa·s], 100 kPa
Details | x1 = 0.0922 | x1 = 0.1786 | x1 = 0.2643 | x1 = 0.3791 | x1 = 0.4723 | x1 = 0.5917 | x1 = 0.6782 | x1 = 0.7647 | x1 = 0.8655 | x1 = 0.9463
293.15 K | 5.13 | 4.89 | 4.64 | 4.3 | 4 | 3.61 | 3.33 | 3.04 | 2.7 | 2.43
303.15 K | 3.78 | 3.63 | 3.47 | 3.24 | 3.04 | 2.79 | 2.6 | 2.4 | 2.17 | 1.99
313.15 K | 2.84 | 2.74 | 2.63 | 2.49 | 2.36 | 2.18 | 2.06 | 1.93 | 1.78 | 1.65
323.15 K | 2.18 | 2.11 | 2.03 | 1.93 | 1.85 | 1.74 | 1.66 | 1.57 | 1.48 | 1.4

NCCNCCN + CCCCCCO
viscosity [mPa·s], 101 kPa
Details | 298.15 K | 303.15 K | 308.15 K
x1 = 0.0573 | 5.116 | 4.247 | 3.626
x1 = 0.1064 | 5.533 | 4.59 | 3.929
x1 = 0.1567 | 5.928 | 4.857 | 4.134
x1 = 0.2089 | 6.207 | 5.066 | 4.274
x1 = 0.2683 | 6.373 | 5.168 | 4.367
x1 = 0.2986 | 6.429 | 5.206 | 4.393
x1 = 0.4054 | 6.424 | 5.195 | 4.362
x1 = 0.5082 | 6.261 | 5.038 | 4.22
x1 = 0.6024 | 5.991 | 4.851 | 4.058
x1 = 0.7078 | 5.825 | 4.666 | 3.925
x1 = 0.7906 | 5.648 | 4.568 | 3.857
x1 = 0.8419 | 5.594 | 4.524 | 3.828
x1 = 0.9102 | 5.589 | 4.493 | 3.81
x1 = 0.9579 | 5.579 | 4.478 | 3.801

CCCCC(=O)O + CCCCCO
viscosity [mPa·s], 100 kPa
Details | x1 = 0.0805 | x1 = 0.1593 | x1 = 0.2392 | x1 = 0.3508 | x1 = 0.4406 | x1 = 0.5609 | x1 = 0.6497 | x1 = 0.7392 | x1 = 0.8517 | x1 = 0.9395
293.15 K | 3.93 | 3.83 | 3.71 | 3.54 | 3.38 | 3.15 | 2.98 | 2.79 | 2.56 | 2.37
303.15 K | 2.98 | 2.92 | 2.85 | 2.74 | 2.63 | 2.48 | 2.36 | 2.24 | 2.08 | 1.96
313.15 K | 2.29 | 2.25 | 2.21 | 2.14 | 2.07 | 1.97 | 1.9 | 1.82 | 1.71 | 1.63
323.15 K | 1.79 | 1.76 | 1.73 | 1.68 | 1.64 | 1.58 | 1.54 | 1.49 | 1.43 | 1.38

Oc1cccc2ccccc12 + CCCCCOC(C)=O
Details | viscosity [mPa·s]
298.15 K, 101 kPa, x2 = 0.5 | 1.549

Oc1cccc(O)c1 + CCCCO
Details | viscosity [mPa·s]
293.15 K, 101 kPa, x1 = 0.28 | 19.75

Oc1cccc2ccccc12 + CCCCO
viscosity [mPa·s], 101 kPa
Details | x1 = 0.04 | x1 = 0.08 | x1 = 0.12 | x1 = 0.16 | x1 = 0.2
293.15 K | 3.278 | 3.6 | 3.953 | 4.407 | 4.888
303.15 K | 2.489 | 2.719 | 2.974 | 3.265 | 3.61
313.15 K | 1.952 | 2.106 | 2.289 | 2.512 | 2.745
323.15 K | 1.56 | 1.685 | 1.816 | 1.966 | 2.14

Oc1cccc(O)c1O + CCCC[N+](CCCC)(CCCC)CCCC.[Br-]
101.3 kPa, x2 = 0.5
Details | viscosity [mPa·s]
293.15 K | 30000
298.15 K | 18500
303.15 K | 11000
308.15 K | 6000
313.15 K | 3250
318.15 K | 1850
323.15 K | 1200

NCCNCCN + CCCCn1cc[n+](C)c1.F[B-](F)(F)F
Details | viscosity [mPa·s]
313.15 K, 101.33 kPa, x2 = 0.8948 | 46.45

CCCCOCCOCCOCCCC + CCCN
298.15 K, 101 kPa
Details | viscosity [mPa·s]
x1 = 0.0095 | 0.375
x1 = 0.0288 | 0.417
x1 = 0.0455 | 0.45
x1 = 0.0845 | 0.529
x1 = 0.1266 | 0.622
x1 = 0.1754 | 0.719
x1 = 0.2172 | 0.806
x1 = 0.2531 | 0.87
x1 = 0.266 | 0.904
x1 = 0.3172 | 0.994
x1 = 0.3559 | 1.055
x1 = 0.3977 | 1.129
x1 = 0.4621 | 1.24
x1 = 0.516 | 1.33
x1 = 0.5979 | 1.489
x1 = 0.6482 | 1.579
x1 = 0.6986 | 1.689
x1 = 0.7471 | 1.774
x1 = 0.7956 | 1.869
x1 = 0.8618 | 2.01
x1 = 0.9261 | 2.093
x1 = 0.9641 | 2.143

CCCCO + CCCO
Details | viscosity [mPa·s]
293.15 K, 101.33 kPa, x2 = 0.152 | 2.84
293.15 K, 101.33 kPa, x2 = 0.3302 | 2.715
293.15 K, 101.33 kPa, x2 = 0.5008 | 2.566
293.15 K, 101.33 kPa, x2 = 0.616 | 2.474
293.15 K, 101.33 kPa, x2 = 0.7172 | 2.41
293.15 K, 101.33 kPa, x2 = 0.8933 | 2.282
298.15 K, 101 kPa, x1 = 0.1009 | 2.024
298.15 K, 101 kPa, x1 = 0.2 | 2.082
298.15 K, 101 kPa, x1 = 0.3013 | 2.135
298.15 K, 101 kPa, x1 = 0.4026 | 2.194
298.15 K, 101 kPa, x1 = 0.5009 | 2.254
298.15 K, 101 kPa, x1 = 0.6055 | 2.319
298.15 K, 101 kPa, x1 = 0.6279 | 2.326
298.15 K, 101 kPa, x1 = 0.7983 | 2.432
298.15 K, 101 kPa, x1 = 0.8992 | 2.494
298.15 K, 101.33 kPa, x2 = 0.1147 | 2.507
298.15 K, 101.33 kPa, x2 = 0.3211 | 2.378
298.15 K, 101.33 kPa, x2 = 0.4966 | 2.261
298.15 K, 101.33 kPa, x2 = 0.6315 | 2.172
298.15 K, 101.33 kPa, x2 = 0.7297 | 2.118
298.15 K, 101.33 kPa, x2 = 0.9322 | 2.001

Oc1cccc(O)c1 + CCCO
viscosity [mPa·s], 101 kPa
Details | 293.15 K | 303.15 K | 323.15 K
x1 = 0.07 | 3.605 | – | 1.675
x1 = 0.28 | – | 12.05 | –

Oc1cccc2ccccc12 + CCCO
viscosity [mPa·s], 101 kPa
Details | x1 = 0.04 | x1 = 0.08 | x1 = 0.12 | x1 = 0.16 | x1 = 0.2
293.15 K | 2.564 | 2.904 | 3.349 | 3.844 | 4.423
303.15 K | 1.999 | 2.245 | 2.528 | 2.863 | 3.26
313.15 K | 1.592 | 1.696 | 1.867 | 2.114 | 2.396
323.15 K | 1.293 | 1.403 | 1.567 | 1.748 | 1.954
